Data taken from PubChem BioAssay AID1963836 (Molecular Pharmacology Branch, DTP, NCI, 2024).

System: 857933-349-R-J2-PDC complex spheroid viability
Experiment: Anticancer human tumor 857933-349-R-J2-PDC patient-derived colon adenocarcinoma cell line growth inhibition [POLQ]
Settings: for IC50: curve of first compound; for viability, T/C: stronger effect = lower value
Method in brief: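 Complex spheroid viability model combining PDC tumour cells with endothelial (HUVEC) and MSC stromal cells. Novobiocin, ART-558 or RP6685 were tested singly and in combination with standard and investigational anticancer drugs. Each was titrated in half-log steps from near clinical Cmax, or from 10 microM where Cmax was unknown.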

[1] = second compound 0.0316 µM, first compound 0.0316 µM
[2] = second compound 0.0316 µM, first compound 0.1 µM
[3] = second compound 0.0316 µM, first compound 0.316 µM
[4] = second compound 0.0316 µM, first compound 1 µM
[5] = second compound 0.0316 µM, first compound 3.16 µM
[6] = second compound 0.0316 µM, first compound 10 µM
[7] = second compound 0.1 µM, first compound 0.0316 µM
[8] = second compound 0.1 µM, first compound 0.1 µM
[9] = second compound 0.1 µM, first compound 0.316 µM
[10] = second compound 0.1 µM, first compound 1 µM
[11] = second compound 0.1 µM, first compound 3.16 µM
[12] = second compound 0.1 µM, first compound 10 µM
[13] = second compound 0.316 µM, first compound 0.0316 µM
[14] = second compound 0.316 µM, first compound 0.1 µM
[15] = second compound 0.316 µM, first compound 0.316 µM
[16] = second compound 0.316 µM, first compound 1 µM
[17] = second compound 0.316 µM, first compound 3.16 µM
[18] = second compound 0.316 µM, first compound 10 µM
[19] = second compound 1 µM, first compound 0.0316 µM
[20] = second compound 1 µM, first compound 0.1 µM
[21] = second compound 1 µM, first compound 0.316 µM
[22] = second compound 1 µM, first compound 1 µM
[23] = second compound 1 µM, first compound 3.16 µM
[24] = second compound 1 µM, first compound 10 µM
[25] = second compound 3.16 µM, first compound 0.0316 µM
[26] = second compound 3.16 µM, first compound 0.1 µM
[27] = second compound 3.16 µM, first compound 0.316 µM
[28] = second compound 3.16 µM, first compound 1 µM
[29] = second compound 3.16 µM, first compound 3.16 µM
[30] = second compound 3.16 µM, first compound 10 µM
[31] = second compound 10 µM, first compound 0.0316 µM
[32] = second compound 10 µM, first compound 0.1 µM
[33] = second compound 10 µM, first compound 0.316 µM
[34] = second compound 10 µM, first compound 1 µM
[35] = second compound 10 µM, first compound 3.16 µM
[36] = second compound 10 µM, first compound 10 µM
[37] = second compound 0.0316 µM, first compound 0.00316 µM
[38] = second compound 0.0316 µM, first compound 0.01 µM
[39] = second compound 0.1 µM, first compound 0.00316 µM
[40] = second compound 0.1 µM, first compound 0.01 µM
[41] = second compound 0.316 µM, first compound 0.00316 µM
[42] = second compound 0.316 µM, first compound 0.01 µM
[43] = second compound 1 µM, first compound 0.00316 µM
[44] = second compound 1 µM, first compound 0.01 µM
[45] = second compound 3.16 µM, first compound 0.00316 µM
[46] = second compound 3.16 µM, first compound 0.01 µM
[47] = second compound 10 µM, first compound 0.00316 µM
[48] = second compound 10 µM, first compound 0.01 µM
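Note: spheroids exposed to compounds for seven days before readout.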

CCc1cc2c(N3CCc4c(cc(Cn5ccnc5)cc4-c4cn(C)nc4C(F)(F)F)C3=O)ccnc2c(OC)n1 + Nc1ccc(C#CCN(C(=O)Cc2ncc(C(F)(F)F)cc2C(F)(F)F)c2ccc(F)cc2)nn1
IC50 (second compound 0.0316 µM): > 10 µM
IC50 (second compound 0.1 µM): > 10 µM
IC50 (second compound 0.316 µM): > 10 µM
IC50 (second compound 1 µM): > 10 µM
IC50 (second compound 3.16 µM): > 10 µM
IC50 (second compound 10 µM): 6.06 µM
viability, T/C [1]: 93.9%
viability, T/C [2]: 96.4%
viability, T/C [3]: 76.3%
viability, T/C [4]: 87.7%
viability, T/C [5]: 59.2%
viability, T/C [6]: 59.2%
viability, T/C [7]: 97.3%
viability, T/C [8]: 101%
viability, T/C [9]: 94.5%
viability, T/C [10]: 93%
viability, T/C [11]: 70%
viability, T/C [12]: 58.5%
viability, T/C [13]: 82%
viability, T/C [14]: 86%
viability, T/C [15]: 94.5%
viability, T/C [16]: 84.1%
viability, T/C [17]: 77%
viability, T/C [18]: 55.1%
viability, T/C [19]: 97.6%
viability, T/C [20]: 90.2%
viability, T/C [21]: 95.1%
viability, T/C [22]: 77.2%
viability, T/C [23]: 71.1%
viability, T/C [24]: 65.3%
viability, T/C [25]: 97.6%
viability, T/C [26]: 89.9%
viability, T/C [27]: 104%
viability, T/C [28]: 83%
viability, T/C [29]: 68.3%
viability, T/C [30]: 62.8%
viability, T/C [31]: 83.5%
viability, T/C [32]: 77.3%
viability, T/C [33]: 79.6%
viability, T/C [34]: 75.7%
viability, T/C [35]: 54.4%
viability, T/C [36]: 46.6%

O=C(c1cc(Cc2n[nH]c(=O)c3ccccc23)ccc1F)N1CCN(C(=O)C2CC2)CC1 + COC1C(OC(N)=O)C(O)C(Oc2ccc3c(O)c(NC(=O)c4ccc(O)c(CC=C(C)C)c4)c(=O)oc3c2C)OC1(C)C
IC50 (second compound 0.0316 µM): > 10 µM
IC50 (second compound 0.1 µM): > 10 µM
IC50 (second compound 0.316 µM): > 10 µM
IC50 (second compound 1 µM): > 10 µM
IC50 (second compound 3.16 µM): > 10 µM
IC50 (second compound 10 µM): > 10 µM
viability, T/C [1]: 125%
viability, T/C [2]: 126%
viability, T/C [3]: 90.8%
viability, T/C [4]: 100%
viability, T/C [5]: 109%
viability, T/C [6]: 84.1%
viability, T/C [7]: 94%
viability, T/C [8]: 130%
viability, T/C [9]: 94.4%
viability, T/C [10]: 88.2%
viability, T/C [11]: 102%
viability, T/C [12]: 79.3%
viability, T/C [13]: 123%
viability, T/C [14]: 123%
viability, T/C [15]: 112%
viability, T/C [16]: 115%
viability, T/C [17]: 92.9%
viability, T/C [18]: 97%
viability, T/C [19]: 93.4%
viability, T/C [20]: 103%
viability, T/C [21]: 87.1%
viability, T/C [22]: 91.2%
viability, T/C [23]: 104%
viability, T/C [24]: 104%
viability, T/C [25]: 92.8%
viability, T/C [26]: 96.8%
viability, T/C [27]: 96.3%
viability, T/C [28]: 81.6%
viability, T/C [29]: 96.1%
viability, T/C [30]: 86.5%
viability, T/C [31]: 84.5%
viability, T/C [32]: 121%
viability, T/C [33]: 79.3%
viability, T/C [34]: 82.7%
viability, T/C [35]: 120%
viability, T/C [36]: 90%

C#Cc1c(F)ccc2cc(O)cc(-c3ncc4c(N5CC6CCC(C5)N6)nc(OCC56CCCN5CC(F)C6)nc4c3F)c12 (stereo not given) + Nc1ccc(C#CCN(C(=O)Cc2ncc(C(F)(F)F)cc2C(F)(F)F)c2ccc(F)cc2)nn1
IC50 (second compound 0.0316 µM): > 10 µM
IC50 (second compound 0.1 µM): > 10 µM
IC50 (second compound 0.316 µM): > 10 µM
IC50 (second compound 1 µM): > 10 µM
IC50 (second compound 3.16 µM): > 10 µM
IC50 (second compound 10 µM): > 10 µM
viability, T/C [1]: 84.4%
viability, T/C [2]: 99.5%
viability, T/C [3]: 82.7%
viability, T/C [4]: 80.8%
viability, T/C [5]: 78.2%
viability, T/C [6]: 73.1%
viability, T/C [7]: 101%
viability, T/C [8]: 101%
viability, T/C [9]: 86.8%
viability, T/C [10]: 87.1%
viability, T/C [11]: 84%
viability, T/C [12]: 80.7%
viability, T/C [13]: 95.3%
viability, T/C [14]: 92.4%
viability, T/C [15]: 79%
viability, T/C [16]: 73%
viability, T/C [17]: 93.8%
viability, T/C [18]: 75.5%
viability, T/C [19]: 104%
viability, T/C [20]: 100%
viability, T/C [21]: 79.5%
viability, T/C [22]: 79.7%
viability, T/C [23]: 86.8%
viability, T/C [24]: 70.6%
viability, T/C [25]: 101%
viability, T/C [26]: 86.8%
viability, T/C [27]: 82.7%
viability, T/C [28]: 76.7%
viability, T/C [29]: 107%
viability, T/C [30]: 68.6%
viability, T/C [31]: 87%
viability, T/C [32]: 76.8%
viability, T/C [33]: 87%
viability, T/C [34]: 73.9%
viability, T/C [35]: 76.3%
viability, T/C [36]: 69%

COc1cccc(OCCCN)c1-c1cc(Nc2cnc(C#N)cn2)n[nH]1 + Nc1ccc(C#CCN(C(=O)Cc2ncc(C(F)(F)F)cc2C(F)(F)F)c2ccc(F)cc2)nn1
IC50 (second compound 0.0316 µM): > 1 µM
IC50 (second compound 0.1 µM): 0.685 µM
IC50 (second compound 0.316 µM): > 1 µM
IC50 (second compound 1 µM): 0.67 µM
IC50 (second compound 3.16 µM): > 1 µM
IC50 (second compound 10 µM): > 1 µM
viability, T/C [37]: 101%
viability, T/C [38]: 113%
viability, T/C [1]: 83.8%
viability, T/C [2]: 68.4%
viability, T/C [3]: 58.9%
viability, T/C [4]: 50.2%
viability, T/C [39]: 104%
viability, T/C [40]: 107%
viability, T/C [7]: 76.9%
viability, T/C [8]: 88.8%
viability, T/C [9]: 58.2%
viability, T/C [10]: 44.3%
viability, T/C [41]: 105%
viability, T/C [42]: 101%
viability, T/C [13]: 88.2%
viability, T/C [14]: 62.1%
viability, T/C [15]: 57.8%
viability, T/C [16]: 54.4%
viability, T/C [43]: 109%
viability, T/C [44]: 88.5%
viability, T/C [19]: 80.5%
viability, T/C [20]: 70%
viability, T/C [21]: 53.9%
viability, T/C [22]: 47.1%
viability, T/C [45]: 101%
viability, T/C [46]: 96.9%
viability, T/C [25]: 81.9%
viability, T/C [26]: 66.8%
viability, T/C [27]: 51.2%
viability, T/C [28]: 54.9%
viability, T/C [47]: 86.8%
viability, T/C [48]: 102%
viability, T/C [31]: 76.9%
viability, T/C [32]: 69.8%
viability, T/C [33]: 57%
viability, T/C [34]: 54%

Cn1ncnc1[C@H]1c2n[nH]c(=O)c3cc(F)cc(c23)N[C@@H]1c1ccc(F)cc1 + Cc1cccc(N(C)C(=O)C2C(O)CCN2c2nc(C)cc(C(F)(F)F)c2C#N)c1
IC50 (second compound 0.0316 µM): > 0.1 µM
IC50 (second compound 0.1 µM): > 0.1 µM
IC50 (second compound 0.316 µM): > 0.1 µM
IC50 (second compound 1 µM): > 0.1 µM
IC50 (second compound 3.16 µM): > 0.1 µM
IC50 (second compound 10 µM): > 0.1 µM
viability, T/C (second compound 0.0316 µM, first compound 0.000316 µM): 101%
viability, T/C (second compound 0.0316 µM, first compound 0.001 µM): 115%
viability, T/C [37]: 114%
viability, T/C [38]: 125%
viability, T/C [1]: 98.2%
viability, T/C [2]: 97.3%
viability, T/C (second compound 0.1 µM, first compound 0.000316 µM): 110%
viability, T/C (second compound 0.1 µM, first compound 0.001 µM): 116%
viability, T/C [39]: 120%
viability, T/C [40]: 80%
viability, T/C [7]: 101%
viability, T/C [8]: 103%
viability, T/C (second compound 0.316 µM, first compound 0.000316 µM): 97.5%
viability, T/C (second compound 0.316 µM, first compound 0.001 µM): 102%
viability, T/C [41]: 95.8%
viability, T/C [42]: 86.2%
viability, T/C [13]: 101%
viability, T/C [14]: 99.8%
viability, T/C (second compound 1 µM, first compound 0.000316 µM): 85.1%
viability, T/C (second compound 1 µM, first compound 0.001 µM): 96.5%
viability, T/C [43]: 80.9%
viability, T/C [44]: 82%
viability, T/C [19]: 103%
viability, T/C [20]: 95.2%
viability, T/C (second compound 3.16 µM, first compound 0.000316 µM): 96.4%
viability, T/C (second compound 3.16 µM, first compound 0.001 µM): 116%
viability, T/C [45]: 92.7%
viability, T/C [46]: 108%
viability, T/C [25]: 96.2%
viability, T/C [26]: 97.1%
viability, T/C (second compound 10 µM, first compound 0.000316 µM): 91%
viability, T/C (second compound 10 µM, first compound 0.001 µM): 115%
viability, T/C [47]: 108%
viability, T/C [48]: 112%
viability, T/C [31]: 110%
viability, T/C [32]: 104%
